SMILES strings stand for the structures.

One assay addresses T1, soybean lipoxygenase (Glycine max, UniProt P08170).
T1 construct: purchased Sigma Chemical, Co. (St. Louis, MO, USA)
T1 sequence (P08170 1-839): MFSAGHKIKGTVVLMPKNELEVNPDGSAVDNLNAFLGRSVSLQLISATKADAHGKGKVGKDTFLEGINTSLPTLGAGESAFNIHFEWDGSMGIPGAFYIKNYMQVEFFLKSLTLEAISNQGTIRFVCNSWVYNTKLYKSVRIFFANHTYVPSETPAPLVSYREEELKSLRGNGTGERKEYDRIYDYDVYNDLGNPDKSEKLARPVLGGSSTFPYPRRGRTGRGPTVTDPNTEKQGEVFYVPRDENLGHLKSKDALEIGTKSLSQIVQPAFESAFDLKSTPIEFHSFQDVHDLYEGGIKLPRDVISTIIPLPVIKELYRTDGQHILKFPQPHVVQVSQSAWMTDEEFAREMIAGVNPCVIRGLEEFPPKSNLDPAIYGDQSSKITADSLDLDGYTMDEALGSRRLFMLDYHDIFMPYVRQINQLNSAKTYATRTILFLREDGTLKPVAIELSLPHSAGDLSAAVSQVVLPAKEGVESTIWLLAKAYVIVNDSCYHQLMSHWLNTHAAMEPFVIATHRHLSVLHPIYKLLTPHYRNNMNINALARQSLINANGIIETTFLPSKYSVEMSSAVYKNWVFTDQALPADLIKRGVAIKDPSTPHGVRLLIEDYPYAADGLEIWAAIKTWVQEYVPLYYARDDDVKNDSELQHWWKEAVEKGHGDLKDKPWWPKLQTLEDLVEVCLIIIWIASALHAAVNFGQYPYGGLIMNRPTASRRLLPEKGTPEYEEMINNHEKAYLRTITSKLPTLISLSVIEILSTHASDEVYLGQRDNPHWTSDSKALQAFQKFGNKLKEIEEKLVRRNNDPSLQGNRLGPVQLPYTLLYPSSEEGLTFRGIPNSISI
Description: Soybean lipoxygenase inhibition study in vitro (UV-based enzyme assay). In kind it is biochemical. As to conditions: 0.01 mM, read-out: LOX inhibition % (±SD). As for the experimental part: The evaluation of the novel acids against soybean lipoxygenase LOX was accomplished by the UV-based enzyme assay of Pontiki and Hadjipavlou-Litina. This assay may be used as a qualitative or semi-quantitative screen for such activity.
In vitro inhibitory LOX assay is accomplished as described previously. The novel derivatives for testing (stock solutions 10 mM in DMSO) were incubated at room temperature with sodium linoleate (0.1 mM) and 0.2 mL of LOX enzyme solution (1/9 × 10^−4w/v in saline). The conversion of sodium linoleate to 13-hydroperoxylinoleic acid was measured at 234 nm and compared with the reference inhibitor. Several concentrations were used for the IC50 determination (Table 2).
For the molecule `N#Cc1ccc(C=CC(=O)O)cc1` [Compound 1ii, 3-(4-Cyanophenyl)acrylic acid], the inhibition at 10 µM came to 27%.
Still for that read-out and setting: with `O=C(O)C=CC=Cc1ccccc1` [Compound 3ii, 5-Phenylpenta-2,4-dienoic acid] the figure was 24%; with `O=C(O)C=CC=Cc1ccc([N+](=O)[O-])cc1` [Compound 2ii, 5-(4-Nitrophenyl)penta-2,4-dienoic acid], 31%.

Still in this assay, the particulars now being: sodium linoleate 0.1 mM, read-out: LOX IC50 (±SD).
On to `O=C(O)C(=CC=Cc1ccc([N+](=O)[O-])cc1)c1ccccc1` [Compound 2i, 5-(4-Nitrophenyl)-2-phenylpenta-2,4-dienoic acid], for which the 50% inhibitory concentration (IC50) came to 66.5 ± 1.2 µM.
Still for that read-out and setting: with `O=C(O)C(=CC(Br)=Cc1ccccc1)c1ccccc1` [Compound 4i, 4-Bromo-2,5-diphenylpenta-2,4-dienoic acid] the figure was 74 ± 1.8 µM; with `O=C(O)C(=CC=Cc1ccccc1)c1ccccc1` [Compound 3i, 2,5-Diphenylpenta-2,4-dienoic acid], 74 ± 1.7 µM; with `N#Cc1ccc(C=C(C(=O)O)c2ccccc2)cc1` [Compound 1i, 3-(4-Cyanophenyl)-2-phenylacrylic acid], 60 ± 0.4 µM.
Same read-out and setting: the same measure for `O=C(O)C=CC(Br)=Cc1ccccc1` [Compound 4ii, 4-Bromo-5-phenylpenta-2,4-dienoic acid]: 10 ± 0.05 µM.
